Test in all cases: relative viability (nuclei count vs DMSO), 5 days (fraction); higher = more cells survive
Compound in assay [1]: C=CC(=O)N1CCC[C@@H](n2nc(-c3ccc(Oc4ccccc4)cc3)c3c(N)ncnc32)C1 [Ibrutinib] + CC(=O)c1c(C)c2cnc(Nc3ccc(N4CCNCC4)cn3)nc2n(C2CCCC2)c1=O [Palbociclib] (partner 0.5 µM)
The method in brief:
(§1)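 Relative viability equals treated-well nuclei counts divided by vehicle-well nuclei counts. Counts came from 4× images of lung cancer cell lines grown in 1536-well plates for 5 days after pin-tool dosing on the day after seeding. Dosing used one drug alone or a fixed anchor-drug dose plus five library-drug doses (not always all listed) in √10 steps, and values are medians of duplicate plates.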

Compound in assay [2]: C=CCc1cccc(/C=N/NC(=O)CN2CCN(Cc3ccccc3)CC2)c1O [PAC-1] + COc1cc2c(Oc3ccc(NC(=O)C4(C(=O)Nc5ccc(F)cc5)CC4)cc3F)ccnc2cc1OCCCN1CCOCC1 [Foretinib] (partner 0.25 µM)
The gist of the method:
as §1

Compound in assay [3]: C=CC(=O)Nc1cc(-n2c(=O)ccc3cnc4ccc(-c5ccc(NS(C)(=O)=O)cc5)cc4c32)ccc1C [BMX-IN-1] + Cc1cc(Nc2cc(N3CCN(C)CC3)nc(Sc3ccc(NC(=O)C4CC4)cc3)n2)n[nH]1 [Tozasertib] (partner 0.1 µM)
The method in brief:
as §1

Compound in assay [4]: C=CC(=O)Nc1cc(-n2c(=O)ccc3cnc4ccc(-c5ccc(NS(C)(=O)=O)cc5)cc4c32)ccc1C [BMX-IN-1] + CC(=O)Nc1cccc(-n2c(=O)n(C3CC3)c(=O)c3c(Nc4ccc(I)cc4F)n(C)c(=O)c(C)c32)c1 [Trametinib] (partner 0.02 µM)
The gist of the method:
as §1

With SK-MES-1, the relative viability is 0.337 in assay [1] (first compound 0.005 µM); 0.324 in assay [1] (first compound 0.01581 µM); 0.382 in assay [1] (first compound 0.05 µM); 0.366 in assay [1] (first compound 0.1581 µM); 0.245 in assay [1] (first compound 0.5 µM); 0.816 in assay [2] (first compound 0.02 µM). The relative viability in assay [2] (first compound 0.06325 µM) stood at 1.03; in assay [2] (first compound 0.2 µM), 0.851; in assay [2] (first compound 2 µM), 0.943; in assay [3] (first compound 0.02 µM), 1.12; in assay [3] (first compound 0.2 µM) it was 1.15; in assay [3] (first compound 0.6325 µM), 1.07. Moreover, the relative viability in assay [3] (first compound 2 µM) was 0.884; in assay [4] (first compound 0.02 µM), 0.603; in assay [4] (first compound 0.2 µM) it was 0.542; in assay [4] (first compound 0.6325 µM) it was 0.561; in assay [4] (first compound 2 µM), 0.537.

The values above are taken from the supplement of paper PMC10307832.
